Test results taken from publication PMC12857768 (Journal of medicinal chemistry, 2024).
Entries after “also recorded” stand apart in the source; their conditions may differ.

Columns and labels:
[1] = system: circulating organ toxicity biomarkers; assay: In vivo toxicity: circulating markers of organ toxicities; design: species or system mice; settings: serum/plasma at end of study, 10 mg/kg oral gavage, N = 9-10
Pyk2 kinase = Pyk2 kinase (Homo sapiens, UniProt Q14289); assay: Pyk2 kinase activity assay; assay type: biochemical; settings: for Pyk2 kinase inhibitory effect (in words): kinase inhibitory assay
skin lesions = assay: Skin lesions / adverse side effects in mice during the in vivo study; design: species or system C57BL/6 female mice; settings: 10 mg/kg oral gavage 5 times per week
GC-induced bone loss = settings: murine model of GC excess; previous studies; cited from earlier work

Sequence of Pyk2 kinase (Q14289 whole entry): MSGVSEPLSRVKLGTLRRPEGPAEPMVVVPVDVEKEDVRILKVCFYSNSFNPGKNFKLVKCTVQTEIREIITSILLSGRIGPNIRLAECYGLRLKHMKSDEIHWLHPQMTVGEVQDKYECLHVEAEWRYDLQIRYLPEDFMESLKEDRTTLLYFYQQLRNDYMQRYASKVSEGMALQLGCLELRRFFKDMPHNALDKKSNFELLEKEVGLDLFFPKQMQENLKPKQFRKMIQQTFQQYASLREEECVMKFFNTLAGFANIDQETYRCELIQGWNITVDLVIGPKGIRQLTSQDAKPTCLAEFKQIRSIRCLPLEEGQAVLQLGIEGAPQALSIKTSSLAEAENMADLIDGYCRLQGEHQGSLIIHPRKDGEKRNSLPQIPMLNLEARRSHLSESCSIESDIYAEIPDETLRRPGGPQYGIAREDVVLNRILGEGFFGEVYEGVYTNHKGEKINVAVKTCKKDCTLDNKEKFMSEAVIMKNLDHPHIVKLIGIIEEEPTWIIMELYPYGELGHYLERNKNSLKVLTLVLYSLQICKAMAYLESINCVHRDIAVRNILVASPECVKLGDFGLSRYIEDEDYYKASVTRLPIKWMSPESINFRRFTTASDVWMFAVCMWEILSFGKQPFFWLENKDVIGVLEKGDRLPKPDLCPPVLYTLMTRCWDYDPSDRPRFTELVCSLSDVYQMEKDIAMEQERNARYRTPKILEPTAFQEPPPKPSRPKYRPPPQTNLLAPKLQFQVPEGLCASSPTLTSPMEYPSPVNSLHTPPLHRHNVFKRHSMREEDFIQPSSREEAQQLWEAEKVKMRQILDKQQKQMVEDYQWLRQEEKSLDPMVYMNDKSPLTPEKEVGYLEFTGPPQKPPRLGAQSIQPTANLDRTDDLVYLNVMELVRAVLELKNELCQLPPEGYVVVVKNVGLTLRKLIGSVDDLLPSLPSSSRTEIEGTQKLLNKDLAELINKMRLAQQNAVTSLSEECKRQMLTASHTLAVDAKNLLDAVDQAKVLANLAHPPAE

SMILES | Circulating organ toxicity biomarkers vs control groups ([1]; 10 mg/kg) | Pyk2 kinase inhibitory effect (in words) (Pyk2 kinase) | Skin lesions / adverse side effects (in words) (skin lesions) | Circulating organ toxicity biomarkers vs control groups [1] | IC50 (Pyk2 kinase) [nM] | Prevention of GC-induced bone loss (GC-induced bone loss)
CNC(=O)c1ccccc1Nc1nc(Nc2ccc(NC(=O)CCCCC(=O)NCCCC(O)(P(=O)(O)O)P(=O)(O)O)cc2OC)ncc1Cl [BT-Amide, (4-(6-((4-((5-Chloro-4-((2-(methylcarbamoyl)phenyl)amino)pyrimidin-2-yl)amino)-3-methoxyphenyl)amino)-6-oxohexanamido)-1-hydroxybutane-1,1-diyl)bis(phosphonic Acid)] | no significant difference; also recorded: None of the markers were significantly elevated above control levels | moderate inhibitory effects | no adverse side effects were observed | – | – | –
CNC(=O)c1ccccc1Nc1nc(Nc2ccc(N3CCC(OC(=O)CCCCC(=O)NCCCC(O)(P(=O)(O)O)P(=O)(O)O)CC3)cc2OC)ncc1Cl [BT-Ester, (4-(6-((1-(4-((5-Chloro-4-((2-(methylcarbamoyl)phenyl)amino)pyrimidin-2-yl)amino)-3-methoxyphenyl)piperidin-4-yl)oxy)-6-oxohexanamido)-1-hydroxybutane-1,1-diyl)bis(phosphonic Acid)] | – | low inhibition | did not develop skin lesions | None of the markers were significantly elevated above control levels | 119 ± 41 | –
CN(c1ccccc1CNc1nc(Nc2ccc3c(c2)CC(=O)N3)ncc1C(F)(F)F)S(C)(=O)=O [PF-431396] | – | – | – | – | – | prevents GC-induced bone loss
